According to ChEMBL document CHEMBL1201861, “Genomics of Drug Sensitity in Cancer screening data, Wellcome Trust Sanger Institute”:

What was measured:
Test in all cases: cells
D-392MG = assay type: functional, cell-based, Homo sapiens; conditions: Homo sapiens, D-392MG
DJM-1 = assay type: functional, cell-based, Homo sapiens; conditions: Homo sapiens, DJM-1;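 further: growth inhibition of human DJM-1 cells, read out by a cell viability assay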
Description: SANGER: Inhibition of human DJM-1 cell growth in a cell viability assay.

EKVX = assay type: functional, cell-based, Homo sapiens; conditions: Homo sapiens, EKVX;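 further: growth inhibition of human EKVX cells, read out with a cell viability assay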
Description: SANGER: Inhibition of human EKVX cell growth in a cell viability assay.

ES4 = assay type: functional, cell-based, Homo sapiens; conditions: Homo sapiens, ES4;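 further: growth inhibition of human ES4 cells, read out by a cell viability assay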
Description: SANGER: Inhibition of human ES4 cell growth in a cell viability assay.

ES5 = assay type: functional, cell-based, Homo sapiens; conditions: Homo sapiens, ES5;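 further: growth inhibition of human ES5 cells, read out by a cell viability assay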
Description: SANGER: Inhibition of human ES5 cell growth in a cell viability assay.

ES7 = assay type: functional, cell-based, Homo sapiens; conditions: Homo sapiens, ES7;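 further: growth inhibition of cultured human ES7 cells, read out as cell viability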
Description: SANGER: Inhibition of human ES7 cell growth in a cell viability assay.

ETK-1 = assay type: functional, cell-based, Homo sapiens; conditions: Homo sapiens, ETK-1;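 further: growth inhibition of human ETK-1 cells, read out with a cell viability assay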
Description: SANGER: Inhibition of human ETK-1 cell growth in a cell viability assay.

EW-11 = assay type: functional, cell-based, Homo sapiens; conditions: Homo sapiens, EW-11;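 further: growth inhibition of human EW-11 cells, measured with a cell viability assay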
Description: SANGER: Inhibition of human EW-11 cell growth in a cell viability assay.

HAL-01 = assay type: functional, cell-based, Homo sapiens; conditions: Homo sapiens, HAL-01;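 further: growth inhibition of human HAL-01 cells, read out with a cell viability assay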
Description: SANGER: Inhibition of human HAL-01 cell growth in a cell viability assay.

HC-1 = assay type: functional, cell-based, Homo sapiens; conditions: Homo sapiens, HC-1;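 further: growth inhibition of HC-1 cells measured by a cell viability assay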
Description: SANGER: Inhibition of human HC-1 cell growth in a cell viability assay.

HD-MY-Z = assay type: functional, cell-based, Homo sapiens; conditions: Homo sapiens, HD-MY-Z;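 further: growth inhibition of HD-MY-Z cells, read out with a cell viability assay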
Description: SANGER: Inhibition of human HD-MY-Z cell growth in a cell viability assay.

HL-60 = assay type: functional, cell-based, Homo sapiens; conditions: Homo sapiens, HL-60;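 further: growth inhibition of human HL-60 cells, read out with a cell viability assay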
Description: SANGER: Inhibition of human HL-60 cell growth in a cell viability assay.

IST-SL1 = assay type: functional, cell-based, Homo sapiens; conditions: Homo sapiens, IST-SL1;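 further: growth inhibition of human IST-SL1 cells, read out with a cell viability assay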
Description: SANGER: Inhibition of human IST-SL1 cell growth in a cell viability assay.

L-363 = assay type: functional, cell-based, Homo sapiens; conditions: Homo sapiens, L-363
Description: SANGER: Inhibition of human L-363 cell growth in a cell viability assay.

LB2241-RCC = assay type: functional, cell-based, Homo sapiens; conditions: Homo sapiens, LB2241-RCC;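 further: cell viability assay measuring how strongly the cultured human renal carcinoma line is prevented from growing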
Description: SANGER: Inhibition of human LB2241-RCC cell growth in a cell viability assay.

LB771-HNC = assay type: functional, cell-based, Homo sapiens; conditions: Homo sapiens, LB771-HNC;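 further: growth inhibition of LB771-HNC human cells, read out with a cell viability assay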
Description: SANGER: Inhibition of human LB771-HNC cell growth in a cell viability assay.

LB831-BLC = assay type: functional, cell-based, Homo sapiens; conditions: Homo sapiens, LB831-BLC;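 further: growth inhibition of LB831-BLC cells, read out with a cell viability assay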
Description: SANGER: Inhibition of human LB831-BLC cell growth in a cell viability assay.

LS-1034 = assay type: functional, cell-based, Homo sapiens; conditions: Homo sapiens, LS-1034
Description: SANGER: Inhibition of human LS-1034 cell growth in a cell viability assay.

MEG-01 = assay type: functional, cell-based, Homo sapiens; conditions: Homo sapiens, MEG-01;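 further: growth inhibition of MEG-01 cells, read out by a cell viability assay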
Description: SANGER: Inhibition of human MEG-01 cell growth in a cell viability assay.

MFM-223 = assay type: functional, cell-based, Homo sapiens; conditions: Homo sapiens, MFM-223
Description: SANGER: Inhibition of human MFM-223 cell growth in a cell viability assay.

MHH-PREB-1 = assay type: functional, cell-based, Homo sapiens; conditions: Homo sapiens, MHH-PREB-1;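 further: cell viability assay measuring inhibition of proliferation of human MHH-PREB-1 cells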
Description: SANGER: Inhibition of human MHH-PREB-1 cell growth in a cell viability assay.

MOLT-16 = assay type: functional, cell-based, Homo sapiens; conditions: Homo sapiens, MOLT-16;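 further: growth inhibition of human MOLT-16 cells, read out with a cell viability assay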
Description: SANGER: Inhibition of human MOLT-16 cell growth in a cell viability assay.

MOLT-4 = assay type: functional, cell-based, Homo sapiens; conditions: Homo sapiens, MOLT-4;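 further: growth inhibition of MOLT-4 cells, determined with a cell viability readout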
Description: SANGER: Inhibition of human MOLT-4 cell growth in a cell viability assay.

MZ7-mel = assay type: functional, cell-based, Homo sapiens; conditions: Homo sapiens, MZ7-mel;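 further: growth inhibition of human MZ7-mel cells, measured by a cell viability assay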
Description: SANGER: Inhibition of human MZ7-mel cell growth in a cell viability assay.

Mo = assay type: functional, cell-based, Homo sapiens; conditions: Homo sapiens, Mo
Description: SANGER: Inhibition of human Mo-T cell growth in a cell viability assay.

NB12 = assay type: functional, cell-based, Homo sapiens; conditions: Homo sapiens, NB12;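 further: growth inhibition of human NB12 cells, read out by a cell viability assay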
Description: SANGER: Inhibition of human NB12 cell growth in a cell viability assay.

NB6 = assay type: functional, cell-based, Homo sapiens; conditions: Homo sapiens, NB6
Description: SANGER: Inhibition of human NB6 cell growth in a cell viability assay.

NB69 = assay type: functional, cell-based, Homo sapiens; conditions: Homo sapiens, NB69;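 further: growth inhibition of NB69 cells, determined by a cell viability assay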
Description: SANGER: Inhibition of human NB69 cell growth in a cell viability assay.

NCI-H1838 = assay type: functional, cell-based, Homo sapiens; conditions: Homo sapiens, NCI-H1838;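 further: growth inhibition of NCI-H1838 cells, determined with a cell viability readout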
Description: SANGER: Inhibition of human NCI-H1838 cell growth in a cell viability assay.

NCI-H446 = assay type: functional, cell-based, Homo sapiens; conditions: Homo sapiens, NCI-H446;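 further: growth inhibition of NCI-H446 cells determined by a cell viability assay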
Description: SANGER: Inhibition of human NCI-H446 cell growth in a cell viability assay.

NKM-1 = assay type: functional, cell-based, Homo sapiens; conditions: Homo sapiens, NKM-1;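 further: growth inhibition of NKM-1 cells, read out with a cell viability assay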
Description: SANGER: Inhibition of human NKM-1 cell growth in a cell viability assay.

NOS-1 = assay type: functional, cell-based, Homo sapiens; conditions: Homo sapiens, NOS-1;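 further: growth inhibition of the human NOS-1 cell line, read out with a cell viability assay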
Description: SANGER: Inhibition of human NOS-1 cell growth in a cell viability assay.

P30-OHK = assay type: functional, cell-based, Homo sapiens; conditions: Homo sapiens, P30-OHK;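 further: growth inhibition of the P30-OHK cell line, read out with a cell viability assay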
Description: SANGER: Inhibition of human P30-OHK cell growth in a cell viability assay.

RCC10RGB = assay type: functional, cell-based, Homo sapiens; conditions: Homo sapiens, RCC10RGB;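 further: growth inhibition of human RCC10RGB cells, read out by a cell viability assay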
Description: SANGER: Inhibition of human RCC10RGB cell growth in a cell viability assay.

SCC-15 = assay type: functional, cell-based, Homo sapiens; conditions: Homo sapiens, SCC-15;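 further: growth inhibition of SCC-15 cells, read out with a cell viability assay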
Description: SANGER: Inhibition of human SCC-15 cell growth in a cell viability assay.

SF-268 = assay type: functional, cell-based, Homo sapiens; conditions: Homo sapiens, SF-268;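 further: growth inhibition of SF-268 cells determined with a cell viability assay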
Description: SANGER: Inhibition of human SF268 cell growth in a cell viability assay.

SH-4 = assay type: functional, cell-based, Homo sapiens; conditions: Homo sapiens, SH-4;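 further: growth inhibition of SH-4 cells, read out with a cell viability assay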
Description: SANGER: Inhibition of human SH-4 cell growth in a cell viability assay.

SNB-75 = assay type: functional, cell-based, Homo sapiens; conditions: Homo sapiens, SNB-75;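 further: cell viability assay measuring growth inhibition of human SNB-75 cells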
Description: SANGER: Inhibition of human SNB75 cell growth in a cell viability assay.

SW872 = assay type: functional, cell-based, Homo sapiens; conditions: Homo sapiens, SW872;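 further: growth inhibition of SW872 cells, read out by a viability assay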
Description: SANGER: Inhibition of human SW872 cell growth in a cell viability assay.

SW 962 = assay type: functional, cell-based, Homo sapiens; conditions: Homo sapiens, SW 962;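 further: growth inhibition of human SW962 cells, read out by a cell viability assay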
Description: SANGER: Inhibition of human SW962 cell growth in a cell viability assay.

697 = assay type: functional, cell-based, Homo sapiens; conditions: Homo sapiens
Description: SANGER: Inhibition of human 697 cell growth in a cell viability assay.

8-MG-BA = assay type: functional, cell-based, Homo sapiens; conditions: Homo sapiens, 8-MG-BA;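 further: growth inhibition of 8-MG-BA cells, read out with a cell viability assay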
Description: SANGER: Inhibition of human 8-MG-BA cell growth in a cell viability assay.

A4-Fuk = assay type: functional, cell-based, Homo sapiens; conditions: Homo sapiens, A4-Fuk;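 further: growth inhibition of A4-Fuk cells, read out by a cell viability assay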
Description: SANGER: Inhibition of human A4-Fuk cell growth in a cell viability assay.

BV-173 = assay type: functional, cell-based, Homo sapiens; conditions: Homo sapiens, BV-173
Description: SANGER: Inhibition of human BV-173 cell growth in a cell viability assay.

TE-5 = assay type: functional, cell-based, Homo sapiens; conditions: Homo sapiens, TE-5;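 further: inhibition of cell growth, read out by a cell viability assay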
Description: SANGER: Inhibition of human TE-5 cell growth in a cell viability assay.

TE-8 = assay type: functional, cell-based, Homo sapiens; conditions: Homo sapiens, TE-8;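 further: growth inhibition of TE-8 cells, measured with a cell viability readout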
Description: SANGER: Inhibition of human TE-8 cell growth in a cell viability assay.

U-87 MG = assay type: functional, cell-based, Homo sapiens, U-87MG ATCC; conditions: Homo sapiens, U-87 MG;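 further: growth inhibition of the cells measured with a viability assay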
Description: SANGER: Inhibition of human U-87-MG cell growth in a cell viability assay.

GAK = assay type: functional, cell-based, Homo sapiens; conditions: Homo sapiens, GAK;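 further: cell growth inhibition read out by a cell viability assay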
Description: SANGER: Inhibition of human GAK cell growth in a cell viability assay.

SW982 = assay type: functional, cell-based, Homo sapiens; conditions: Homo sapiens, SW982;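 further: growth inhibition of SW982 cells, read out with a cell viability assay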
Description: SANGER: Inhibition of human SW982 cell growth in a cell viability assay.

TGBC24TKB = assay type: functional, cell-based, Homo sapiens; conditions: Homo sapiens, TGBC24TKB;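 further: growth inhibition of human TGBC24TKB cells, read out with a cell viability assay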
Description: SANGER: Inhibition of human TGBC24TKB cell growth in a cell viability assay.

CC[C@H](CO)Nc1nc(NCc2ccccc2)c2ncn(C(C)C)c2n1 [SELICICLIB]
IC50 (D-392MG): > 16 µM | IC50 (DJM-1): > 16 µM | IC50 (EKVX): > 16 µM | IC50 (ES4): > 16 µM | IC50 (ES5): > 16 µM | IC50 (ES7): > 16 µM | IC50 (ETK-1): > 16 µM | IC50 (EW-11): > 16 µM | IC50 (HAL-01): > 16 µM | IC50 (HC-1): > 16 µM | IC50 (HD-MY-Z): > 16 µM | IC50 (HL-60): > 16 µM | IC50 (IST-SL1): > 16 µM | IC50 (L-363): > 16 µM | IC50 (LB2241-RCC): > 16 µM | IC50 (LB771-HNC): > 16 µM | IC50 (LB831-BLC): 11.6 µM | IC50 (LS-1034): > 16 µM | IC50 (MEG-01): 13.8 µM | IC50 (MFM-223): > 16 µM | IC50 (MHH-PREB-1): > 16 µM | IC50 (MOLT-16): > 16 µM | IC50 (MOLT-4): > 16 µM | IC50 (MZ7-mel): > 16 µM | IC50 (Mo): > 16 µM | IC50 (NB12): > 16 µM | IC50 (NB6): > 16 µM | IC50 (NB69): > 16 µM | IC50 (NCI-H1838): > 16 µM | IC50 (NCI-H446): > 16 µM | IC50 (NKM-1): > 16 µM | IC50 (NOS-1): > 16 µM | IC50 (P30-OHK): > 16 µM | IC50 (RCC10RGB): > 16 µM | IC50 (SCC-15): > 16 µM | IC50 (SF-268): > 16 µM | IC50 (SH-4): > 16 µM | IC50 (SNB-75): > 16 µM | IC50 (SW872): > 16 µM | IC50 (SW 962): > 16 µM | IC50 697: 12.6 µM | IC50 (8-MG-BA): > 16 µM | IC50 (A4-Fuk): > 16 µM | IC50 (BV-173): > 16 µM | IC50 (TE-5): > 16 µM | IC50 (TE-8): > 16 µM | IC50 (U-87 MG): > 16 µM

CCN(CC)CCCCNc1ncc2cc(-c3cc(OC)cc(OC)c3)c(NC(=O)NC(C)(C)C)nc2n1 [PD-173074]
IC50 (D-392MG): > 2 µM | IC50 (DJM-1): > 2 µM | IC50 (EKVX): > 2 µM | IC50 (ES4): > 2 µM | IC50 (ES5): > 2 µM | IC50 (ES7): > 2 µM | IC50 (ETK-1): > 2 µM | IC50 (EW-11): > 2 µM | IC50 (GAK): > 2 µM | IC50 (HAL-01): > 2 µM | IC50 (HD-MY-Z): > 2 µM | IC50 (HL-60): > 2 µM | IC50 (IST-SL1): > 2 µM | IC50 (L-363): > 2 µM | IC50 (LB2241-RCC): > 2 µM | IC50 (LB771-HNC): > 2 µM | IC50 (LB831-BLC): > 2 µM | IC50 (LS-1034): > 2 µM | IC50 (MEG-01): > 2 µM | IC50 (MFM-223): 0.216 µM | IC50 (MHH-PREB-1): > 2 µM | IC50 (MOLT-16): > 2 µM | IC50 (MOLT-4): > 2 µM | IC50 (MZ7-mel): > 2 µM | IC50 (Mo): > 2 µM | IC50 (NB12): > 2 µM | IC50 (NB6): > 2 µM | IC50 (NB69): > 2 µM | IC50 (NCI-H1838): > 2 µM | IC50 (NCI-H446): > 2 µM | IC50 (NKM-1): > 2 µM | IC50 (NOS-1): > 2 µM | IC50 (P30-OHK): > 2 µM | IC50 (RCC10RGB): > 2 µM | IC50 (SCC-15): > 2 µM | IC50 (SF-268): > 2 µM | IC50 (SH-4): > 2 µM | IC50 (SNB-75): > 2 µM | IC50 (SW872): > 2 µM | IC50 (SW 962): 0.79 µM | IC50 (SW982): > 2 µM | IC50 697: > 2 µM | IC50 (8-MG-BA): > 2 µM | IC50 (A4-Fuk): > 2 µM | IC50 (BV-173): 0.846 µM | IC50 (TE-5): > 2 µM | IC50 (TE-8): > 2 µM | IC50 (TGBC24TKB): > 2 µM | IC50 (U-87 MG): > 2 µM

COc1cc2c(Nc3ccc(NC(=O)c4ccccc4)cc3)ncnc2cc1OCCCN1CCOCC1
IC50 (D-392MG): > 4 µM | IC50 (DJM-1): > 4 µM | IC50 (EKVX): > 4 µM | IC50 (ES4): > 4 µM | IC50 (ES5): 1 µM | IC50 (ES7): > 4 µM | IC50 (ETK-1): > 4 µM | IC50 (EW-11): > 4 µM | IC50 (GAK): > 4 µM | IC50 (HAL-01): > 4 µM | IC50 (HD-MY-Z): > 4 µM | IC50 (HL-60): 2.59 µM | IC50 (IST-SL1): 1.32 µM | IC50 (L-363): 1.95 µM | IC50 (LB2241-RCC): 1.04 µM | IC50 (LB771-HNC): > 4 µM | IC50 (LB831-BLC): > 4 µM | IC50 (LS-1034): > 4 µM | IC50 (MEG-01): > 4 µM | IC50 (MFM-223): > 4 µM | IC50 (MHH-PREB-1): > 4 µM | IC50 (MOLT-16): 0.61 µM | IC50 (MOLT-4): 0.9 µM | IC50 (MZ7-mel): > 4 µM | IC50 (Mo): > 4 µM | IC50 (NB12): > 4 µM | IC50 (NB6): > 4 µM | IC50 (NB69): 3.23 µM | IC50 (NCI-H1838): > 4 µM | IC50 (NCI-H446): > 4 µM | IC50 (NKM-1): 1.17 µM | IC50 (NOS-1): > 4 µM | IC50 (P30-OHK): > 4 µM | IC50 (RCC10RGB): > 4 µM | IC50 (SCC-15): 3.73 µM | IC50 (SF-268): > 4 µM | IC50 (SH-4): > 4 µM | IC50 (SNB-75): > 4 µM | IC50 (SW872): > 4 µM | IC50 (SW 962): > 4 µM | IC50 (SW982): > 4 µM | IC50 697: 0.739 µM | IC50 (8-MG-BA): > 4 µM | IC50 (A4-Fuk): 3.77 µM | IC50 (BV-173): 1.76 µM | IC50 (TE-5): > 4 µM | IC50 (TE-8): 2.49 µM | IC50 (TGBC24TKB): > 4 µM | IC50 (U-87 MG): > 4 µM
